Laboratory results taken from patent US11202833B2, “Methylglyoxal-scavenging cyclic peptides and their use for the prevention and treatment of diseases associated with elevated methylglyoxal levels” (RUPRECHT-KARLS-UNIVERSITÄT HEIDELBERG, priority 2016, dated 2021).
Numbered stars: 1 amine (or outer) side, 2 acyl side, 3 side chain; on linkers, the order of the positions; unused ones are H or OH. Bridge positions count the residues as written; N and C are the ends. Side chains are listed from the residue outwards. Peptide text beside a SMILES is read from it. * marks the point of attachment. ξ: configuration not given here. DOTA = O=C(O)CN1CCN(CC(=O)O)CCN(CC(=O)*)CCN(CC(=O)O)CC1; C16 diacid = O=C(O)CCCCCCCCCCCCCCC(=O)*; ξγGlu = O=C(O)C(CCC(=O)[*:2])N[*:1]; Myristoyl = CCCCCCCCCCCCCC(=O)*

Legend:
[1] = system: human serum albumin (HSA); test: Competitive inhibition of HSA MG-H1 formation; format: biochemical; details: for prevention of HSA-MG-H1 formation: FIG. 2B, HSA with MG and scavenger
Procedure: In short, pure MG-1,1-dimethylacetal was heated in sulphuric acid solution for 1 h and fractionally distilled in a column containing glass helices under reduced pressure. Fractions were analyzed by ^1H and ^13C NMR. […] Two parts urea (8M urea, 0.5 M TrisHCl; pH8.0) were added to the solution and the sample was vortexed. HSA was precipitated by addition of two parts acetonitrile (respective to the final sample/urea mixture) and collected by centrifugation for 10′ at 13000 g. […] The HSA containing pellet was dissolved in 20 mM HCl and the protein content was determined by BCA assay. […] The amount of HSA-MG-H1 adduct was determined by LC-MS. Samples and standard curve were spiked with d3-MG-H1 (Polypeptide Group, San Diego, Calif., USA) and derivatized with Fmoc-Cl. Separation was performed on a C18 column (Hypersil Gold aQ; Thermo Scientific, USA) using a 20 min gradient of 0-100% acetonitrile (0.1% TFA) with the first five minutes diverted to waste. Analysis was carried out on an Exactive Orbitrap MS system (Thermo Scientific, USA). […] The calibration range used for the assay was 0-30 pmol.

[2] = set-up: species or system NMRI mice; details: mouse, in vivo
Procedure: DOTA coupled peptides were labeled with ^68Ga as described previously (Wischnjow et al., 2016). In short ^68Ga was eluted from the generator into a tube containing 20 nmol of the peptide and 0.5% ascorbic acid in 0.5 M Na-acetate buffer. The mixture was incubated at pH 3.5-4.0 for 10′ at 95° C. while stirring to allow for the ^68Ga-DOTA complex to form. Free ^68Ga was removed using C18 solid phase extraction cartridges (Thermo Scientific, USA) and the product was checked by HPLC (Agilent Technologies, USA) equipped with a radio flow detector. The labeled peptide was injected i.v. into NMRI mice. PET analysis was carried out for 0-1 h and for another 20′ after 2 h while cumulative pictures are shown for 0-20 min, 40-60 min and 120-140 min.
Data was normalized for animal weight and injected dose and pictures and data are given as standardized uptake value [SUV]. For quantitative comparison the area under the curve for the SUV values of the different regions was determined and compared by Student's t-test.

[3] = Serum stability of 177Lu-labelled peptides; format: in vitro ADME; details: human serum, 37° C., after 24 h, 177Lu label
Procedure: The cyclic peptide CycK(DOTA)K(Myr)R4E and the linear peptide K(DOTA)K(Myr)R4E were labeled with ^177Lu. In short 20 nmol of peptides were incubated with ^177Lu in 0.4 M Na-acetate buffer (pH 5.0) for 10′ at 95° C. Free ^177Lu was removed by C18 solid phase extraction cartridges, the products eluted with EtOH and checked by radio-HPLC. The radiolabelled peptides were reconstituted in human serum (H4522; Sigma-Aldrich) and incubated in serum at 37° C. for the times indicated. Serum was precipitated by addition of two parts acetonitrile centrifuged for 10 min at 13000 g and the supernatant analysed by HPLC (Agilent Technologies, USA) fitted with a radio flow detector using a 10 min gradient of 0-60% acetonitrile in water (0.1% TFA).

[4] = Kinsky et al., 2016; cited from earlier work
washed human whole blood [5] = test: Hemolysis; details: 37° C., 30 min
Procedure: (§1) Human whole blood was collected into EDTA tubes and centrifuged at 500 g at RT for 5 min. The plasma and buffy coat was removed and saline solution was added to the haematocrit containing pellet to the previous plasma level to wash the erythrocytes. The tube was gently inverted several times and centrifuged again at 500 g. This procedure was repeated until the supernatant remained clear (approx. 4 times). After the last centrifugation step the hematocrit was re-suspended in PBS to reach the original blood volume. […] Haemolysis was compared to saline solution (negative control; 0% haemolysis) and 1% Triton X100 solution (positive control; 100% haemolysis).

[6] = MG scavenging in vitro (MG half-life by HPLC)
Procedure: (§2) Scavengers (400 μM) were incubated with MG (200 μM) in 0.1 M phosphate buffer, pH 7.4 at 37° C. The kinetics of the scavenging reaction was followed for 48 h. Samples were frozen in liquid nitrogen and stored at −80° C. until analysis. MG content was quantified by HPLC as described below.
(§3) In short samples were precipitated with 20% TCA at a ratio of 2/1 and vortex mixed. Internal standards ^13C MG (LC-MS/MS analysis) or 2,3-dimethylquinoxaline (HPLC analysis) and water was added and the sample mixed again. Samples were centrifuged at 13,000 g at 4° C. for 5 min and the supernatant derivatized with 1,2-diaminobenzene in the presence of sodium azide for 4 h at RT. For HPLC based MG analysis the linear gradient was 0-6% acetonitrile in 15 min. The MG-1,2-diaminobenzene adduct 2-methylquinoxaline and the internal standard 2,3-dimethylquinoxaline were detected with a UV monitor at 320 nm and eluted at 12.7 min and 14.2 min, respectively. For LC-MS/MS, samples were analyzed using an ACQUITY UPLC I equipped with a Xevo TQ-S mass spectrometer (Waters, USA). Samples were separated on BEH C18 analytical column (2.1×50 mm, 1.7 μm) fitted with pre-column (2.1×5 mm, 1.7 μm). Solvent A was water+0.1% formic and solvent B was 50% acetonitrile+0.1% formic acid and a linear gradient from 0-100% solvent B, over ten minutes was used with a flow rate of 0.2 ml/min. Injection volume was 1 μl and the column temperature was 20° C. The quinoxaline analytes were detected by electrospray positive ionization-mass spectrometric multiple-reaction monitoring (MRM). The source temperature was 150° C. and the desolvation gas temperature was 350° C. The cone gas and desolvation gas flow rates were 150 and 800 l/hr, respectively. The capillary voltage was 0.5 kV and the cone voltage was 20V. Mass transitions (parent ion >fragment ion; collision energy) and retention time were as follows: MG 145.01>77.10; 24 eV, 5.93 mins; [^13C3]-MG 148.07>77.16; 24 eV, 5.92 mins. The standard curve was in the range of 0-20 pmol and 0-1 nmol for LC MS/MS analysis and HPLC analysis, respectively.

[7] = system: murine cardiac endothelial cells; format: cell-based; details: mouse, 48 h, 1 mM
Procedure: Murine cardiac endothelial cells were seeded on gelatine pre-coated 96 well plates at a density of 5000 cells per well in DMEM (1 g/1 glucose, 5% FCS, 1% Pen/Strep, 1% AmpB, 1% HEPES). On the following day cells were switched to medium containing only 0.1% FCS. […] MTT ((3-(4,5-Dimethylthiazol-2-yl)-2,5-Diphenyltetrazolium Bromide)) solution (50 μl of 2 mg/ml in PBS) was added to the wells and the plate was incubated at 37° C. for 3-4 h. Medium was removed and 200 μl of DMSO was added to lyse cells and solubilise the purple formazan crystals. The plate was incubated for 1 h at room temperature on a shaker and absorbance was measured at 590 nm. Intensity for untreated cells was set to 100%.

[8] = 400 µM, pH 7.4
Procedure: as §2, §3

washed human whole blood [9] = system: washed human whole blood
Procedure: as §1

in vivo = details: C57/B16, mouse, ip
Procedure: Blood was collected by cardiac puncture in an aesthetised mice at time points 10′, 30′, 1 h, 4 h, 8 h and 24 h into tubes containing EDTA. Plasma was collected after centrifugation at 3000 g for 5′ at room temperature and frozen in liquid nitrogen.
Plasma was acidified with 5% TFA (5 μl/30 μl), acetonitrile (60 μl) was added and the tubes vortexed. Another 120 μl of acetonitrile were added and samples were ultrasonicated for 5 min. Samples were spun for 20 min at 13000 g. The supernatant (180 μl) was collected, mixed with 180 μl of water and freeze dried. The sample was resuspended in 30 μl of a mixture of acetonitrile/water (ratio of 1/1) containing 0.1% TFA. The samples was analysed by LC MS. Concentration was calculated by normalisation for the internal standard in combination with linear regression of a standard curve. Concentration/time-points were fitted using a one phase exponential decay model to determine the half-life of the drug.

N=C(N)NN [Agd, aminoguanidine]
prevention of HSA-MG-H1 formation [1]: tended to be more efficient

CCCCCCCCCCCCCC(=O)NCCCC[C@@H]1NC(=O)[C@H](CCCCNC(=O)CN2CCN(CC(=O)O)CCN(CC(=O)O)CCN(CC(=O)O)CC2)NC(=O)CC[C@@H](C(=O)O)NC(=O)[C@H](CCCNC(=N)N)NC(=O)[C@H](CCCNC(=N)N)NC(=O)[C@H](CCCNC(=N)N)NC(=O)[C@H](CCCNC(=N)N)NC1=O [CycK(DOTA)K(Myr)R4E] (K(DOTA)K(Myristoyl)RRRRE-OH; lactam N-7)
SUV in the bladder [2]: lower
SUV in the kidney [2]: similar
SUV values in the heart, muscle and liver [2]: higher
accumulation in the kidneys [2]: strong accumulation in the kidneys
circulates for [2]: over 140 min
peptide remaining [3]: 86.16%

Cc1ncc(CO)c(CN)c1O [Pyr, pyridoxamine]
prevention of HSA-MG-H1 formation [1]: did not significantly prevent

N=C(N)NCCC[C@@H]1NC(=O)[C@H](CCCNC(=N)N)NC(=O)[C@H](CCCNC(=N)N)NC(=O)[C@H](CCCNC(=N)N)NC(=O)[C@H](CCCCNC(=O)CN2CCN(CC(=O)O)CCN(CC(=O)O)CCN(CC(=O)O)CC2)NC(=O)CC[C@@H](C(=O)O)NC1=O (68Ga complex, metal not drawn) [CycK(DOTA)R4E] (K(DOTA)RRRRE-OH; lactam N-6)
completely excreted after [2]: ≤ 140 min
excreted almost completely within/after ([2]; iv): ≤ 20 min

CN(C)C(=N)N=C(N)N [Met, metformin]
prevention of HSA-MG-H1 formation [1]: did not significantly prevent
MG-metformin adduct concentration in the urine [4]: up to 4 μM

CCCCCCCCCCCCCC(=O)NCCCC[C@H](NC(=O)[C@@H](N)CCCCNC(=O)CN1CCN(CC(=O)O)CCN(CC(=O)O)CCN(CC(=O)O)CC1)C(=O)N[C@@H](CCCNC(=N)N)C(=O)N[C@@H](CCCNC(=N)N)C(=O)N[C@@H](CCCNC(=N)N)C(=O)N[C@@H](CCCNC(=N)N)C(=O)N[C@@H](CCC(=O)O)C(=O)O [K(DOTA)K(Myr)R4E] (H-K(DOTA)K(Myristoyl)RRRRE-OH; N-terminus assumed)
peptide remaining [3]: 33.4%

CCCCCCCCCCCCCC(=O)NCCCC[C@@H]1NC(=O)CC[C@@H](C(=O)O)NC(=O)[C@H](CCCNC(=N)N)NC(=O)[C@H](CCCNC(=N)N)NC(=O)[C@H](CCCNC(=N)N)NC(=O)[C@H](CCCNC(=N)N)NC1=O [CycK(Myr)R4E] (K(Myristoyl)RRRRE-OH; lactam N-6)
concentration above which significant hemolysis is displayed (washed human whole blood [5]): over 50 μM

NCCC(=O)N[C@@H](Cc1cnc[nH]1)C(=O)O [Car, carnosine]
prevention of HSA-MG-H1 formation [1]: nor did it prevent
MG scavenging (in words) [6]: neither scavenged MG

CN(CC(=O)O)C(=N)N [Cre, creatine]
MG scavenging (in words) [6]: fastest of the endogenous MG scavengers tested

N=C(N)NCCC[C@@H]1NC(=O)[C@H](CCCNC(=N)N)NC(=O)[C@H](CCCNC(=N)N)NC(=O)[C@H](CCCNC(=N)N)NC(=O)[C@H](CCCCNC(=O)CCC(NC(=O)CCCCCCCCCCCCCCC(=O)O)C(=O)O)NC(=O)CC[C@@H](C(=O)O)NC1=O (stereo partly shown) [CycK(e-Hdd)R4E] (K([ξγGlu-C16 diacid])RRRRE-OH; lactam N-6)
prevention of modification of HSA with MG-H1 ([1]; FIG. 9, peptides 400 μM, HSA 400 μM, MG 200 μM): significantly prevented
viability relative to untreated cells [7]: 75%
MG t1/2 [8]: 1.1 h
hemolysis (in words) (washed human whole blood [9]): does not cause hemolysis even at high concentrations
half-life (in vivo): ~8 h
